The values below come from patent US9512126B2, “Substituted imidazopyridazines” (Bayer Intellectual Property GmbH, priority 2012, dated 2016).

The structures appear in SMILES notation.

Data set [1] addresses human kinase Mps-1 (Homo sapiens (Human), UniProt P33981). Description: Mps-1 kinase assay (TR-FRET). Type of data set: biochemical. Particulars: N-terminally GST-tagged human full length recombinant Mps-1, 10 μM ATP. The protocol:
The human kinase Mps-1 phosphorylates a biotinylated substrate peptide. Detection of the phosphorylated product is achieved by time-resolved fluorescence resonance energy transfer (TR-FRET) from Europium-labelled anti-phospho-Serine/Threonine antibody as donor to streptavidin labelled with cross-linked allophycocyanin (SA-XLent) as acceptor. Compounds are tested for their inhibition of the kinase activity.
N-terminally GST-tagged human full length recombinant Mps-1 kinase (purchased from Invitrogen, Karslruhe, Germany, cat. no PV4071) was used. As substrate for the kinase reaction a biotinylated peptide of the amino-acid sequence […] (C-terminus in amide form, purchased from Biosynthan GmbH, Berlin) was used.
The concentration of Mps-1 in the assay was adjusted to the activity of the enzyme lot and was chosen appropriate to have the assay in the linear range, typical enzyme concentrations were in the range of about 1 nM (final conc. in the 5 μl assay volume).
The resulting mixture was incubated 1 h at 22° C. to allow the binding of the phosphorylated peptide to the anti-phospho(Ser/Thr)-Europium-antibody. Subsequently the amount of phosphorylated substrate was evaluated by measurement of the resonance energy transfer from the Europium-labelled anti-phospho(Ser/Thr) antibody to the Streptavidin-XLent.
On the technique in general: In TR-FRET formats the signal depends on donor and acceptor labels being close together.

The nature of data set [2]: In vitro metabolic stability in rat hepatocytes (including calculation of hepatic in vivo blood clearance). Type of data set: in vitro ADME. Particulars: Han Wistar, hepatocytes (freshly isolated, suspension), read-out: CL (hepatic in vivo blood clearance) (converted). On the procedure: Investigation of In Vitro Metabolic Stability in Rat Hepatocytes (Including Calculation of Hepatic In Vivo Blood Clearance (CL))
Hepatocytes from Han Wistar rats were isolated via a 2-step perfusion method. After perfusion, the liver was carefully removed from the rat: the liver capsule was opened and the hepatocytes were gently shaken out into a Petri dish with ice-cold WME. The resulting cell suspension was filtered through sterile gaze in 50 ml falcon tubes and centrifuged at 50×g for 3 min at room temperature. The cell pellet was resuspended in 30 ml WME and centrifuged through a Percoll® gradient for 2 times at 100×g. The hepatocytes were washed again with Williams' medium E (WME) and resuspended in medium containing 5% FCS. Cell viability was determined by trypan blue exclusion.
For the metabolic stability assay liver cells were distributed in WME containing 5% FCS to glass vials at a density of 1.0×10^6 vital cells/ml. The test compound was added to a final concentration of 1 μM. During incubation, the hepatocyte suspensions were continuously shaken and aliquots were taken at 2, 8, 16, 30, 45 and 90 min, to which equal volumes of cold methanol were immediately added.
Samples were frozen at −20° C. over night, after subsequently centrifuged for 15 minutes at 3000 rpm and the supernatant was analyzed with an Agilent 1200 HPLC-system with LCMS/MS detection.
The half-life of a test compound was determined from the concentration-time plot. From the half-life the intrinsic clearances were calculated. Together with the additional parameters liver blood flow, amount of liver cells in vivo and in vitro. The hepatic in vivo blood clearance (CL) and the maximal oral bioavailability (Fmax) was calculated. The following parameter values were used: Liver blood flow—4.2 L/h/kg rat; specific liver weight—32 g/kg rat body weight; liver cells in vivo—1.1×10^8 cells/g liver, liver cells in vitro—0.5×10^6 ml.

human kinase Mps-1, sequence (P33981 whole entry): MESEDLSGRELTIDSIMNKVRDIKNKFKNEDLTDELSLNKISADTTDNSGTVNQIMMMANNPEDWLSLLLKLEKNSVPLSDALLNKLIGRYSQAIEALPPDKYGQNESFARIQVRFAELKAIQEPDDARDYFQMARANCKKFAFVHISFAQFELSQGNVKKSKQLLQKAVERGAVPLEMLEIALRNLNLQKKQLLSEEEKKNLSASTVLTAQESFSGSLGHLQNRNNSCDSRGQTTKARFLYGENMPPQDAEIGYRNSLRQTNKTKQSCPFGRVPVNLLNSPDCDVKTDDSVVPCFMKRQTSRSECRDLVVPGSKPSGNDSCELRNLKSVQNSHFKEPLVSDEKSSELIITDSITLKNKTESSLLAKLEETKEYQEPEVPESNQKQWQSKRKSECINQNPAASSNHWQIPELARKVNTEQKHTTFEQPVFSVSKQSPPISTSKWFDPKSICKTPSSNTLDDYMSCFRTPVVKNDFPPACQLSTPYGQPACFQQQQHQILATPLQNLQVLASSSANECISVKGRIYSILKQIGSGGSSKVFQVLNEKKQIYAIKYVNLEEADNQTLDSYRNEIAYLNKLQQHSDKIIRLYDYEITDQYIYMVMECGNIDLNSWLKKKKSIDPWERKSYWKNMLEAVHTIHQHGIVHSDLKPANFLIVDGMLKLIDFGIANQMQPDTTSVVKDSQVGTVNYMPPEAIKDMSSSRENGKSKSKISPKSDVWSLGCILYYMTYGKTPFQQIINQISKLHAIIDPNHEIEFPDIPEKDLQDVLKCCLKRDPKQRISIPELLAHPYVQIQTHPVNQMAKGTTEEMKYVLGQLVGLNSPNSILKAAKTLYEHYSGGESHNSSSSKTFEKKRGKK

Consider `Cc1cc(-c2cnc3c(NCCC(F)(F)F)cc(C(F)(F)c4cccc(F)c4)nn23)ccc1C(=O)NC1CC1` [Example 6, N-Cyclopropyl-4-{6-[difluoro(3-fluorophenyl)methyl]-8-[(3,3,3-trifluoropropyl)amino]imidazo[1,2-b]pyridazin-3-yl}-2-methylbenzamide], for which, in data set [1], the IC50 came out at 0.7 nM. Moreover, the CLhep predicted at 1 μM in data set [2] was 21.7 mL/min/kg. As to `C=C(c1cccc(F)c1)c1cc(NCCC(F)(F)F)c2ncc(-c3ccc(C(=O)NC4CC4)c(C)c3)n2n1` [Example 24, N-cyclopropyl-4-{6-[1-(3-fluorophenyl)ethenyl]-8-[(3,3,3-trifluoropropyl)amino]imidazo[1,2-b]pyridazin-3-yl}-2-methylbenzamide], the CLhep predicted at 1 μM in data set [2] is 36.7 mL/min/kg. Regarding `Cc1cc(-c2cnc3c(NCCC(F)(F)F)cc(C4(c5cccc(F)c5)CC4)nn23)ccc1C(=O)NC1CC1` [Example 25, N-cyclopropyl-4-{6-[1-(3-fluorophenyl)cyclopropyl]-8-[(3,3,3-trifluoropropyl)amino]imidazo[1,2-b]pyridazin-3-yl}-2-methylbenzamide], the CLhep predicted at 1 μM in data set [2] is 33.3 mL/min/kg.

For orientation: IC50 means the concentration that gives 50% inhibition.
